What is called EC50 is the concentration needed to bring the measured effect to its halfway point.

Structures are written as SMILES.

The target of one test is T1, CBP Bromodomain (Homo sapiens, UniProt Q92793).
T1 construct: purchased Cayman chemicals 600850
As to the kind of experiment: Assay 3: CBP bromodomain binding assay (TR-FRET). As to the method:
Assay 3 CBP Bromodomain Binding Assay (TR-FRET)
Compounds solutions of 10 mM in DMSO were pre-diluted in DSMO to 25× stock solutions in DMSO. These were then diluted down to 4× in assay buffer. A dilution series in assay buffer was performed keeping the DMSO concentration stable. 5 μl compound in assay buffer was transferred into the assay plate (provided by assay kit) and the TR-FRET assay Cayman chemicals; 600850) was performed using the manufactor's instructions. After 1 hour incubation at room temperature in the darks, assay plates were read in a Tecan M1000 plate reader or a Tecan Spaks reader using the TR-FRET mode (top read; excitation 340 nm bandwidth […]; emission 620 nm bandwidth […]; gain optimal determined for the first well, number of flashes: 5; flash frequency 100 Hz; integration time: 500 μs, lag time: 100 μs, room temperature). The TR-FRET ratio was calculated by deviding 670 nm emission by 620 nm emission. Values were log transformed and non-linear regression with variable slope (4 parameters) was used to fit values to a dose-response curve to evaluate EC50 values.

The next test concerns A375 cells. Put plainly: Assay 1: A375 cells treated with S1152, S1008 and compound, immunofluorescence (sc-365823) signal. The test is classed as cell-based. The following applies: 1 μM S1152 + 0.5 μM S1008, one day. In short, it runs like this: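 A375 cells treated one day with 1 μM S1152, 0.5 μM S1008 and compound dose ranges in DMEM/10% FCS, then fixed, permeabilised and immunostained. Green signal normalised to nuclear counterstain (ethidium-type or DAPI), log ratio fitted by four-parameter regression for EC50.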

A further test concerns OPM-2. Put plainly: Assay 2: multiple myeloma cellular efficacy, PrestoBlue cell proliferation/survival. The test is classed as cell-based. The following applies: Homo sapiens, 96 h, OPM-2 cells, 4 days. In short, it runs like this: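 Cells seeded at 10000/well and exposed to a compound dose range or vehicle for 4 days, then stained with PrestoBlue for 2 h at 37 °C. Fluorescence was background-subtracted and normalized to vehicle; EC50 came from a four-parameter variable-slope fit against log concentration.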

T1 sequence (Q92793 1085-1192 limits assumed): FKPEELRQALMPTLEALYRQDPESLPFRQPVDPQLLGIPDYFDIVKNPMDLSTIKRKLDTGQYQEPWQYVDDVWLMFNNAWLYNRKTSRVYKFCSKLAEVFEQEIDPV

For the molecule `CC(=O)N1C[C@H](c2nc(Nc3ccnc(-c4cn(C)nn4)c3)cc(-c3cnccn3)n2)CC[C@@H]1C` [Compound 00168, 1-((2S,5R)-2-methyl-5-(4-((2-(1-methyl-1H-1,2,3-triazol-4-yl)pyridin-4-yl)amino)-6-(pyrazin-2-yl)pyrimidin-2-yl)piperidin-1-yl)ethan-1-one], the EC50 at CBP Bromodomain, in the test with A375 cells and in the test on OPM-2 was less than 200 nM throughout.
Regarding `CC(=O)N1C[C@H](c2nc(Nc3cc(F)c4cn[nH]c4c3)cc(-c3cccnc3)n2)CC[C@@H]1C` [Compound 00040, 1-((2S,5R)-5-(4-((4-fluoro-1H-indazol-6-yl)amino)-6-(pyridin-3-yl)pyrimidin-2-yl)-2-methylpiperidin-1-yl)ethan-1-one], the EC50 at CBP Bromodomain and in the test on A375 cells was less than 200 nM in each case.
Turning to `CC(=O)N1C[C@H](c2nc(Nc3cncc(C)c3)cc(-c3cnccn3)n2)CC[C@@H]1C` [Compound 00001, 1-((2S,5R)-2-methyl-5-(4-((5-methylpyridin-3-yl)amino)-6-(pyrazin-2-yl)pyrimidin-2-yl)piperidin-1-yl)ethan-1-one], the concentration for a half-maximal effect (EC50) on CBP Bromodomain and in the test on A375 cells was less than 200 nM each time.
Consider `CC(=O)N1C[C@H](c2nc(Nc3cc(F)cc(-c4cn(C)nn4)c3)cc(-c3cnccn3)n2)CC[C@@H]1C` [Compound 00069, 1-((2S,5R)-5-(4-((3-fluoro-5-(1-methyl-1H-1,2,3-triazol-4-yl)phenyl)amino)-6-(pyrazin-2-yl)pyrimidin-2-yl)-2-methylpiperidin-1-yl)ethan-1-one], for which the EC50 on CBP Bromodomain, with A375 cells and with OPM-2 was less than 200 nM throughout.
On to `CC(=O)N1C[C@H](c2nc(Nc3ccnc(C(C)C)c3)cc(-c3cnccn3)n2)CC[C@@H]1C` [Compound 00153, 1-((2S,5R)-5-(4-((2-isopropylpyridin-4-yl)amino)-6-(pyrazin-2-yl)pyrimidin-2-yl)-2-methylpiperidin-1-yl)ethan-1-one], for which the results for the EC50 on CBP Bromodomain, with A375 cells and with OPM-2 were less than 200 nM, less than 200 nM and 200 to 1000 nM, respectively.
With `CC(=O)N1C[C@H](c2nc(Nc3ccccc3)cc(-n3cnc(C)c3)n2)CC[C@@H]1C` [Compound 00163, 1-((2S,5R)-2-methyl-5-(4-(4-methyl-1H-imidazol-1-yl)-6-(phenylamino)pyrimidin-2-yl)piperidin-1-yl)ethan-1-one], the EC50 on CBP Bromodomain and in the test with A375 cells was 1000 to 10000 nM throughout.
As for `CC(=O)N1C[C@H](c2nc(Nc3cc(F)cc(-c4cnoc4)c3)cc(-c3cccnc3)n2)CC[C@@H]1C` [Compound 00046, 1-((2S,5R)-5-(4-((3-fluoro-5-(isoxazol-4-yl)phenyl)amino)-6-(pyridin-3-yl)pyrimidin-2-yl)-2-methylpiperidin-1-yl)ethan-1-one], the EC50 on CBP Bromodomain and with A375 cells was less than 200 nM each time.
For `CC(=O)N1C[C@H](c2nc(Nc3cccc(-c4cnn(C)c4)c3)cc(-c3cccnc3)n2)CC[C@@H]1C` [Compound 00044, 1-((2S,5R)-2-methyl-5-(4-((3-(1-methyl-1H-pyrazol-4-yl)phenyl)amino)-6-(pyridin-3-yl)pyrimidin-2-yl)piperidin-1-yl)ethan-1-one], the EC50 at CBP Bromodomain, in the test with A375 cells and in the test with OPM-2 was less than 200 nM in each case.
Regarding `CC(=O)N1C[C@H](c2nc(Nc3cccc4[nH]ncc34)cc(-c3cccnc3)n2)CC[C@@H]1C` [Compound 00042, 1-((2S,5R)-5-(4-((1H-indazol-4-yl)amino)-6-(pyridin-3-yl)pyrimidin-2-yl)-2-methylpiperidin-1-yl)ethan-1-one], the EC50 on CBP Bromodomain was 200 to 1000 nM; with A375 cells, less than 200 nM.
Consider `C[C@H]1CC[C@@H](c2nc(Nc3cccc(F)c3)cc(-c3cccnc3)n2)CN1C(N)=O` [Compound 00165, (2S,5R)-5-(4-((3-fluorophenyl)amino)-6-(pyridin-3-yl)pyrimidin-2-yl)-2-methylpiperidine-1-carboxamide], for which the 50% effective concentration (EC50) at CBP Bromodomain and with A375 cells was 1000 to 10000 nM throughout.
In the case of `CC(=O)N1C[C@H](c2nc(Nc3ccnc(C)c3)cc(-c3cnccn3)n2)CC[C@@H]1C` [Compound 00126, 1-((2S,5R)-2-methyl-5-(4-((2-methylpyridin-4-yl)amino)-6-(pyrazin-2-yl)pyrimidin-2-yl)piperidin-1-yl)ethan-1-one], the 50% effective concentration (EC50) on CBP Bromodomain was less than 200 nM.
For `CC(=O)N1C[C@H](c2nc(Nc3ccc4[nH]ncc4c3)cc(-c3cccnc3)n2)CC[C@@H]1C` [Compound 00030, 1-((2S,5R)-5-(4-((1H-indazol-5-yl)amino)-6-(pyridin-3-yl)pyrimidin-2-yl)-2-methylpiperidin-1-yl)ethan-1-one], the concentration for a half-maximal effect (EC50) at CBP Bromodomain was 200 to 1000 nM; in the test on A375 cells, less than 200 nM.
Taken in the same sequence, the figures for `CC(=O)N1C[C@H](c2nc(Nc3cc(F)cc(-c4cnn(C)c4)c3)cc(-c3cccnc3)n2)CC[C@@H]1C` [Compound 00043, 1-((2S,5R)-5-(4-((3-fluoro-5-(1-methyl-1H-pyrazol-4-yl)phenyl)amino)-6-(pyridin-3-yl)pyrimidin-2-yl)-2-methylpiperidin-1-yl)ethan-1-one] were less than 200 nM and less than 200 nM.
On to `CC(=O)N1C[C@H](c2nc(Nc3ccc4nccn4c3)cc(-c3cccnc3)n2)CC[C@@H]1C` [Compound 00013, 1-((2S,5R)-5-(4-(imidazo[1,2-a]pyridin-6-ylamino)-6-(pyridin-3-yl)pyrimidin-2-yl)-2-methylpiperidin-1-yl)ethan-1-one], for which the EC50 was 200 to 1000 nM at CBP Bromodomain and 1000 to 10000 nM in the test on A375 cells.
As to `CC(=O)N1C[C@H](c2nc(Nc3cc(F)cc(C(=O)N(C)C)c3)cc(-c3cccnc3)n2)CC[C@@H]1C` [Compound 00038, 3-((2-((3R,6S)-1-acetyl-6-methylpiperidin-3-yl)-6-(pyridin3-yl)pyrimidin-4-yl)amino)-5-fluoro-N,N-dimethylbenzamide], the 50% effective concentration (EC50) on CBP Bromodomain and in the test on A375 cells was 200 to 1000 nM in each case.
Turning to `COc1cc(F)cc(Nc2cc(-c3cnccn3)nc([C@@H]3CC[C@H](C)N(C(C)=O)C3)n2)c1` [Compound 00067, 1-((2S,5R)-5-(4-((3-fluoro-5-methoxyphenyl)amino)-6-(pyrazin-2-yl)pyrimidin-2-yl)-2-methylpiperidin-1-yl)ethan-1-one], the concentration giving a half-maximal response (EC50) in the test with A375 cells and in the test with OPM-2 was less than 200 nM throughout.
Turning to `CC(=O)N1C[C@H](c2nc(Nc3ccncc3)cc(-c3cccnc3)n2)CC[C@@H]1C` (racemic) [Compound 00101, (+/−)-c/s-1-(2-methyl-5-(4-(pyridin-3-yl)-6-(pyridin-4-ylamino)pyrimidin-2-yl)piperidin-1-yl)ethan-1-one], the half-maximal effective concentration (EC50) on CBP Bromodomain and in the test with A375 cells was 200 to 1000 nM each time.
Turning to `CCn1cc(-c2cc(Nc3cc(-c4cccnc4)nc([C@@H]4CC[C@H](C)N(C(C)=O)C4)n3)ccn2)cn1` [Compound 00158, 1-((2S-5R)-5-(4-((2-(1-ethyl-1H-pyrazol-4-yl)pyridin-4-yl)amino)-6-(pyridin-3-yl)pyrimidin-2-yl)-2-methylpiperidin-1-yl)ethan-1-one], the EC50 in the test on A375 cells and with OPM-2 was less than 200 nM each time.
As to `CC(=O)N1C[C@H](c2nc(Nc3ccnc(-c4cnn(C5CCOCC5)c4)c3)cc(-c3cccnc3)n2)CC[C@@H]1C` [Compound 00159, 1-((2S-5R)-2-methyl-5-(4-(pyridin-3-yl)-6-((2-(1-(tetrahydro-2H-pyran-4-yl)-1H-pyrazol-4-yl)pyridin-4-yl)amino)pyrimidin-2-yl)piperidin-1-yl)ethan-1-one], the half-maximal effective concentration (EC50) in the test on A375 cells and in the test on OPM-2 was less than 200 nM throughout.
As to `CC(=O)N1C[C@H](c2nc(Nc3cc(C)nc(C(F)F)c3)cc(-c3cccnc3)n2)CC[C@@H]1C` [Compound 00144, 1-((2S,5R)-5-(4-((2-(difluoromethyl)-6-methylpyridin-4-yl)amino)-6-(pyridin-3-yl)pyrimidin-2-yl)-2-methylpiperidin-1-yl)ethan-1-one], the concentration giving a half-maximal response (EC50) with A375 cells and in the test on OPM-2 was less than 200 nM in each case.
As for `CC(=O)Nc1cc(Nc2cc(-c3cccnc3)nc([C@@H]3CC[C@H](C)N(C(C)=O)C3)n2)cc(C(F)F)c1` [Compound 00060, N-(3-((2-((3R,6S)-1-acetyl-6-methylpiperidin-3-yl)-6-(pyridin-3-yl)pyrimidin-4-yl)amino)-5-(difluoromethyl)phenyl)acetamide], the half-maximal effective concentration (EC50) in the test with A375 cells is 200 to 1000 nM; in the test on OPM-2, less than 200 nM.
Consider `CC(=O)N1C[C@H](c2nc(Nc3cncc(C)c3)cc(-c3cccnc3)n2)CC[C@@H]1C` (racemic) [Compound 00096, (+/−)-cis-1-(2-methyl-5-(4-((5-methylpyridin-3-yl)amino)-6-(pyridin-3-yl)pyrimidin-2-yl)piperidin-1-yl)ethan-1-one], for which the figures for the EC50 in the test with A375 cells and with OPM-2 were less than 200 nM and 200 to 1000 nM, respectively.
For `CC(=O)N1C[C@H](c2nc(Nc3ccnc(C)c3)cc(-c3cc(C)cs3)n2)CC[C@@H]1C` [Compound 00105, 1-((2S,5R)-2-methyl-5-(4-((2-methylpyridin-4-yl)amino)-6-(4-methylthiophen-2-yl)pyrimidin-2-yl)piperidin-1-yl)ethan-1-one], the concentration for a half-maximal effect (EC50) in the test with A375 cells was less than 200 nM; in the test on OPM-2, 200 to 1000 nM.

The values are drawn from patent US12478624B2, “Heterocyclic derivatives, pharmaceutical compositions and their use in the treatment or amelioration of cancer” (Tolremo Therapeutics AG, priority 2019, dated 2025).
